Experiments:
Details in all cases: incubation time: 72 h
DU-4475 [1] = assay: normalised viability (% of control), CellTiter-Blue; higher = more viable cells (100 = DMSO, 0 = benzethonium chloride kill control)
Method: (§1)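 DSRT, CellTiter-Blue viability, 72 h incubation. Signal is normalised to DMSO and benzethonium chloride controls. Value is the normalised response at dose 1.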

MDA-MB-231 = assay: as above
Method: as §1

HCC1937 = assay: as above
Method: as §1

CAL-51 [2] = assay: as above
Method: as §1

BT-549 = assay: as above
Method: as §1

MDA-MB-436 [3] = assay: as above
Method: as §1

MDA-MB-453 [4] = assay: as above
Method: as §1

CAL-85-1 [5] = assay: as above
Method: as §1

BT-474 [6] = assay: as above
Method: as §1

Hs578T [7] = assay: as above
Method: as §1

HCC1143 [8] = assay: as above
Method: as §1

CAL-120 [9] = assay: as above
Method: as §1

HCC1599 [10] = assay: as above
Method: as §1

MFM-223 [11] = assay: as above
Method: as §1

SK-BR-3 = assay: as above
Method: as §1

MDA-MB-468 = assay: as above
Method: as §1

HDQ-P1 = assay: as above
Method: as §1

CAL-148 [12] = assay: as above
Method: as §1

DU-4475 [13] = assay: normalised viability (% of control), CellTiter-Blue; higher = more viable cells (about 100 = DMSO control)
Method: (§2)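 DSRT, CellTiter-Blue viability, 72 h incubation. Signal is normalised to DMSO and benzethonium chloride controls. Value is the normalised response at dose 3.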

CAL-51 [14] = assay: as above
Method: as §2

MDA-MB-436 [15] = assay: as above
Method: as §2

MDA-MB-453 [16] = assay: as above
Method: as §2

BT-474 [17] = assay: as above
Method: as §2

Hs578T [18] = assay: as above
Method: as §2

HCC1143 [19] = assay: as above
Method: as §2

CAL-120 [20] = assay: as above
Method: as §2

HCC1599 [21] = assay: as above
Method: as §2

MFM-223 [22] = assay: as above
Method: as §2

CAL-85-1 [23] = assay: normalised viability (% of control), CellTiter-Blue; higher = more viable cells (about 100 = DMSO control)
In short: (§3)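 After 72 h on compound-loaded 384-well plates, breast cancer cell lines received 2.5 µl CellTiter-Blue reagent for 2 h at 37 °C. Fluorescence at 560/590 nm was scaled per plate so that vehicle was 100 and a positive kill control was 0. The value stands for normalised viability at a single listed concentration of the series.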

CAL-148 [24] = assay: as above
In short: as §3

**Q.** What does the source list for `CC(=O)Nc1cccc(-n2c(=O)n(C3CC3)c(=O)c3c(Nc4ccc(I)cc4F)n(C)c(=O)c(C)c32)c1`?
**A.** normalised viability (DU-4475 [1]; 0.025 nM): 105%; normalised viability (MDA-MB-231; 0.025 nM): 105%; normalised viability (HCC1937; 0.025 nM): 93.7%; normalised viability (CAL-51 [2]; 0.025 nM): 98.7%; normalised viability (BT-549; 0.025 nM): 104%; normalised viability (MDA-MB-436 [3]; 0.025 nM): 101%; normalised viability (MDA-MB-453 [4]; 0.025 nM): 107%; normalised viability (CAL-85-1 [5]; 0.025 nM): 107%; normalised viability (BT-474 [6]; 0.025 nM): 100%; normalised viability (Hs578T [7]; 0.025 nM): 113%; normalised viability (HCC1143 [8]; 0.025 nM): 102%; normalised viability (CAL-120 [9]; 0.025 nM): 104%; normalised viability (HCC1599 [10]; 0.025 nM): 104%; normalised viability (MFM-223 [11]; 0.025 nM): 105%; normalised viability (SK-BR-3; 0.025 nM): 135%; normalised viability (MDA-MB-468; 0.025 nM): 112%; normalised viability (HDQ-P1; 0.025 nM): 105%; normalised viability (CAL-148 [12]; 0.025 nM): 107%; normalised viability (DU-4475 [13]; 0.25 nM): 101%; normalised viability (CAL-51 [14]; 0.25 nM): 90.4%; normalised viability (MDA-MB-436 [15]; 2.5 nM): 92.8%; normalised viability (MDA-MB-453 [16]; 0.25 nM): 106%; normalised viability (BT-474 [17]; 2.5 nM): 119%; normalised viability (Hs578T [18]; 2.5 nM): 94.9%; normalised viability (HCC1143 [19]; 2.5 nM): 86.7%; normalised viability (CAL-120 [20]; 2.5 nM): 99.4%; normalised viability (HCC1599 [21]; 2.5 nM): 84.6%; normalised viability (MFM-223 [22]; 2.5 nM): 90.6%; normalised viability (CAL-85-1 [23]; 25 nM): 60.4%; normalised viability (CAL-148 [24]; 25 nM): 91.2%

**Q.** Which results are given for `CCc1cncnc1N1CCN(Cc2nc3ccc(C(F)(F)F)cc3[nH]2)CC1`?
**A.** normalised viability (DU-4475 [1]; 1 nM): 93.2%; normalised viability (MDA-MB-231; 1 nM): 96.8%; normalised viability (HCC1937; 1 nM): 86.6%; normalised viability (CAL-51 [2]; 1 nM): 90.8%; normalised viability (BT-549; 1 nM): 98.2%; normalised viability (MDA-MB-436 [3]; 1 nM): 106%; normalised viability (MDA-MB-453 [4]; 1 nM): 101%; normalised viability (CAL-85-1 [5]; 1 nM): 99%; normalised viability (BT-474 [6]; 1 nM): 102%; normalised viability (Hs578T [7]; 1 nM): 106%; normalised viability (HCC1143 [8]; 1 nM): 103%; normalised viability (CAL-120 [9]; 1 nM): 111%; normalised viability (HCC1599 [10]; 1 nM): 82.6%; normalised viability (MFM-223 [11]; 1 nM): 103%; normalised viability (SK-BR-3; 1 nM): 88.8%; normalised viability (MDA-MB-468; 1 nM): 109%; normalised viability (HDQ-P1; 1 nM): 106%; normalised viability (CAL-148 [12]; 1 nM): 114%; normalised viability (DU-4475 [13]; 10 nM): 94.2%; normalised viability (CAL-51 [14]; 10 nM): 87%; normalised viability (MDA-MB-436 [15]; 100 nM): 99.8%; normalised viability (MDA-MB-453 [16]; 10 nM): 98.8%; normalised viability (BT-474 [17]; 100 nM): 123%; normalised viability (Hs578T [18]; 100 nM): 96.4%; normalised viability (HCC1143 [19]; 100 nM): 132%; normalised viability (CAL-120 [20]; 100 nM): 105%; normalised viability (HCC1599 [21]; 100 nM): 86.2%; normalised viability (MFM-223 [22]; 100 nM): 103%; normalised viability (CAL-85-1 [23]; 1000 nM): 101%; normalised viability (CAL-148 [24]; 1000 nM): 124%
